Experimental data reported in PubChem BioAssay (NCI).
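96-well plates; 48 h exposure; 5 concentrations. Endpoints by linear interpolation between flanking doses. Not reached: highest tested concentration assigned. TGI is the concentration that stops growth completely.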

Columns and labels:
Experiment in all cases: inhibition of tumour cell growth, NCI panel, 48 h
UACC-257 melanoma = tested on: UACC-257 melanoma
U251 CNS = tested on: U251 CNS
SW-620 colon = tested on: SW-620 colon
OVCAR-3 ovarian = tested on: OVCAR-3 ovarian
HOP-62 NSCLC = tested on: HOP-62 NSCLC
HCT-116 colon = tested on: HCT-116 colon
K-562 leukemia = tested on: K-562 leukemia
A549 NSCLC = tested on: A549 NSCLC
TK-10 renal = tested on: TK-10 renal
NCI/ADR-RES ovarian = tested on: NCI/ADR-RES ovarian
DU-145 prostate = tested on: DU-145 prostate
EKVX NSCLC = tested on: EKVX NSCLC

Row | SMILES | TGI (UACC-257 melanoma) [µM] | TGI (U251 CNS) [µM] | TGI (SW-620 colon) [µM] | TGI (OVCAR-3 ovarian) [µM] | TGI (HOP-62 NSCLC) [µM] | TGI (HCT-116 colon) [µM] | TGI (K-562 leukemia) [µM] | TGI (A549 NSCLC) [µM] | TGI (TK-10 renal) [µM] | TGI (NCI/ADR-RES ovarian) [µM] | TGI (DU-145 prostate) [µM] | TGI (EKVX NSCLC) [µM]
1 | CC1(C)Cc2c(sc3[nH]c(=S)[nH]c(=S)c23)CS1 | 73.8 | > 100 | > 100 | 82.9 | > 100 | > 100 | > 100 | > 100 | > 100 | > 100 | > 100 | 
2 | C/C=C/c1cc2c(cc1O)CC[C@@H]1[C@@H]2CC[C@]2(C)[C@@H](O)CC[C@@H]12 | 22.4 | 13 | 19 | 2.24 | 16.3 | 5.17 | 15.7 | 15.9 | 27.3 |  | 3.05 | 24.7
3 | CC1(C)OCC(CO)(CO)CO1 | > 100 | > 100 | > 100 | > 100 |  | > 100 | > 100 | > 100 | > 100 | > 100 | > 100 | 
4 | O=C(NN1C(=O)CS(=O)(=O)C1c1ccc(Cl)c(Cl)c1)c1ccncc1 (stereo not drawn) | > 100 | > 100 | > 100 | > 100 | > 100 | > 100 | > 100 | > 100 |  | > 100 |  | > 100
5 | C=C1N(S(=O)(=O)c2ccc(C)cc2)C(=O)OCC12CCCC2 | > 100 | > 100 | > 100 | > 100 |  | > 100 | > 100 | > 100 | > 100 | > 100 | > 100 | > 100
6 | CCOP(=O)(C/C=C/Cn1ncc(=O)[nH]c1=O)OCC | > 100 | > 100 | > 100 | > 100 | > 100 |  | > 100 | > 100 | > 100 | > 100 | > 100 | > 100
7 | O=C(c1cscc1CCc1ccccc1)c1cscc1CCc1ccccc1 | > 100 | > 100 | > 100 |  | > 100 | > 100 | > 100 | > 100 | > 100 | > 100 | > 100 | > 100
8 | CSc1c(C#N)c(=O)n(N)c2c1c(C)nn2-c1ccccc1 | 60.9 | > 100 | > 100 | 77 |  | 56.2 | 87 | 61.6 | > 100 | 62.9 | > 100 | 78
9 | O=Cc1cn(CCCCCCCCn2cc(C=O)c3ccccc32)c2ccccc12 |  | > 10 | > 10 | > 10 | > 10 | > 10 | > 10 | > 10 | > 10 | > 10 | > 10 | > 10
10 | O=c1[nH]c(=O)c2c([nH]1)[nH]c1ccc(Br)cc12 | > 100 |  | > 100 |  | > 100 | > 100 |  | > 100 | > 100 | > 100 | > 100 | > 100
11 | C=C1CC(OC)(C(OC)C(=O)N[C@H]2OCO[C@H]3C2O[C@H](C[C@@H](COC)OC)C(C)(C)C3OC)O[C@H](C)[C@@H]1C (stereo partly drawn) | 14.7 | 4.13 | 15 | 2.96 | 8.46 | 5.77 | 3.38 | 5.24 |  | > 47 |  | 
12 | C=C(C)[C@H]1CC[C@@]23O[C@@H]2[C@@H](C[C@@]2(C)CC(=O)[C@H](CC(=O)C1)O2)OC(=O)[C@@]12CC[C@H](C(=C)C)CC(=O)C[C@H]4O[C@](C)(CC4=O)C[C@@H](OC3=O)[C@@H]1O2 | > 100 | > 100 |  | > 100 | > 100 | > 100 | > 100 | > 100 | > 100 | > 100 | > 100 | > 100
13 | c1ccc2sc(SSSc3nc4ccccc4s3)nc2c1 | > 100 | > 100 | > 100 |  | > 100 | > 100 | > 100 | > 100 | > 100 | > 100 | > 100 | > 100
14 | C=C1CC[C@@H]2C13[C@@H]1[C@H](CC(=O)[C@@]23C)C1(C)C (stereo partly drawn) | > 100 | > 100 | > 100 | > 100 | > 100 | > 100 | > 100 | > 100 | > 100 | > 100 | > 100 | 
15 | O=c1[nH]c2c(c(=O)[nH]1)SC(c1ccccc1)C2 (stereo not drawn) | > 100 | > 100 | > 100 | > 100 | > 100 | > 100 | > 100 | > 100 |  | > 100 | > 100 | > 100
16 | Cc1cc(C)c(NS(=O)c2cccc(C(F)(F)F)c2)c(C)c1 (stereo not drawn) | > 100 | > 100 | > 100 | > 100 | > 100 |  | > 100 | > 100 | > 100 | > 100 | > 100 | 
17 | CCOC(=O)[C@@H]1[C@@H](c2ccccc2)N(C)O[C@@]1(c1ccccc1)C(F)(F)F | > 100 | > 100 | > 100 | > 100 | > 100 | > 100 |  | > 100 | > 100 | > 100 | > 100 | > 100
18 | CCN(CC)C(=O)CCn1cc(F)c(=O)[nH]c1=O |  | > 100 | > 100 | > 100 | > 100 | > 100 | > 100 | > 100 | > 100 |  |  | > 100
19 | CNC(=O)C(C)Oc1ccc(OCC2CCCCC2)cc1 (stereo not drawn) | > 100 | > 100 |  | > 100 |  | > 100 | > 100 | > 100 | > 100 |  |  | 
20 | ICC1CCCO1 (stereo not drawn) | > 100 | > 100 | > 100 |  |  | > 100 |  | > 100 | > 100 |  |  | > 100
